# pIC50: −log10 of the molar value.
# Legend:
# Assay type in all cases: cell-based
# [1] = test system: AGS (G12D); test: Cell proliferation assay (CellTiter-Glo, 72 hours), AGS; details: 72 h, 384-well, CellTiter-Glo 2.0
# Procedure: (§1) Two thousand KRAS mutant cells per well were seeded in 384-well white plate and then treated with indicated compounds for 72 hours at 37° C. and 5% CO2. Cell proliferation was measured using CellTiter-Glo 2.0 luciferase-based ATP detection assay (Promega, Madison, WI) following the manufacturer's protocol. IC50 values were determined using Prism software (GraphPad Software, San Diego, CA).
# [2] = test system: GP2D (KRAS G12D); test: Cell proliferation assay (CellTiter-Glo, 72 hours), GP2D; details: GP2d, 72 h, 384-well, CellTiter-Glo 2.0
# Procedure: as §1
# [3] = test system: SW620 (KRAS G12V); test: Cell proliferation assay (CellTiter-Glo, 72 hours), SW620; details: Homo sapiens, SW-620, 72 h, 384-well, CellTiter-Glo 2.0
# Procedure: as §1
SMILES,pIC50 [1],pIC50 [3],pIC50 [2]
"C#Cc1c(F)ccc2cc(O)cc(-c3nc4c5c(nc(OC[C@@]67CCCN6C[C@H](F)C7)nc5c3F)N(C)[C@@H](CO)CO4)c12 [Example 27, 5-ethynyl-6-fluoro-4-[(9S)-4-fluoro-2-{[(2R,7aS)-2-fluorotetrahydro-1H-pyrrolizin-7a(5H)-yl]methoxy}-9-(hydroxymethyl)-10-methyl-9,10-dihydro-8H-7-oxa-1,3,6,10-tetraazacyclohepta[1,2,3-de]naphthalen-5-yl]naphthalen-2-ol]",< 5.52,,< 5.52
"CCc1c(F)ccc2cc(O)cc(-c3nc4c5c(nc(OC[C@@]67CCCN6C[C@H](F)C7)nc5c3F)N(C)[C@@H](CO)CO4)c12 [Example 28, 5-ethyl-6-fluoro-4-[(9S)-4-fluoro-2-{[(2R,7aS)-2-fluorotetrahydro-1H-pyrrolizin-7a(5H)-yl]methoxy}-9-(hydroxymethyl)-10-methyl-9,10-dihydro-8H-7-oxa-1,3,6,10-tetraazacyclohepta[1,2,3-de]naphthalen-5-yl]naphthalen-2-ol]",< 5.52,< 5.52,< 5.52
"C#Cc1c(F)ccc2cc(O)cc(-c3nc4c5c(nc(OC[C@@]67CCCN6C[C@H](F)C7)nc5c3F)N[C@@H](C3CC3)CO4)c12 [Example 31, 4-[(9S)-9-cyclopropyl-4-fluoro-2-{[(2R,7aS)-2-fluorotetrahydro-1H-pyrrolizin-7a(5H)-yl]methoxy}-9,10-dihydro-8H-7-oxa-1,3,6,10-tetraazacyclohepta[1,2,3-de]naphthalen-5-yl]-5-ethynyl-6-fluoronaphthalen-2-ol]",< 5.52,< 5.52,5.72
"CCc1c(F)ccc2cc(O)cc(-c3nc4c5c(nc(OC[C@@]67CCCN6C[C@H](F)C7)nc5c3F)N[C@@H](C3CC3)CO4)c12 [Example 33, 4-[(9S)-9-cyclopropyl-4-fluoro-2-{[(2R,7aS)-2-fluorotetrahydro-1H-pyrrolizin-7a(5H)-yl]methoxy}-9,10-dihydro-8H-7-oxa-1,3,6,10-tetraazacyclohepta[1,2,3-de]naphthalen-5-yl]-5-ethyl-6-fluoronaphthalen-2-ol]",5.55,5.81,6.02
"C#Cc1c(F)ccc2cc(O)cc(-c3nc4c5c(nc(OC[C@@]67CCCN6C[C@H](F)C7)nc5c3F)N[C@@H](C3CCC3)CO4)c12 [Example 35, 4-[(9S)-9-cyclobutyl-4-fluoro-2-{[(2R,7aS)-2-fluorotetrahydro-1H-pyrrolizin-7a(5H)-yl]methoxy}-9,10-dihydro-8H-7-oxa-1,3,6,10-tetraazacyclohepta[1,2,3-de]naphthalen-5-yl]-5-ethynyl-6-fluoronaphthalen-2-ol]",< 5.52,< 5.52,< 5.52
"C#Cc1c(F)ccc2cc(O)cc(-c3nc4c5c(nc(OC[C@@]67CCCN6C[C@H](F)C7)nc5c3F)N[C@@H](CCOC)CO4)c12 [Example 48, 5-ethynyl-6-fluoro-4-[(9S)-4-fluoro-2-{[(2R,7aS)-2-fluorotetrahydro-1H-pyrrolizin-7a(5H)-yl]methoxy}-9-(2-methoxyethyl)-9,10-dihydro-8H-7-oxa-1,3,6,10-tetraazacyclohepta[1,2,3-de]naphthalen-5-yl]naphthalen-2-ol]",< 5.52,< 5.52,5.66
"C#Cc1c(F)ccc2cc(O)cc(-c3nc4c5c(nc(OC[C@@]67CCCN6C[C@H](F)C7)nc5c3F)N(C)[C@@H](C(C)C)CO4)c12 [Example 51, 5-ethynyl-6-fluoro-4-[(9S)-4-fluoro-2-{[(2R,7aS)-2-fluorotetrahydro-1H-pyrrolizin-7a(5H)-yl]methoxy}-10-methyl-9-(propan-2-yl)-9,10-dihydro-8H-7-oxa-1,3,6,10-tetraazacyclohepta[1,2,3-de]naphthalen-5-yl]naphthalen-2-ol]",< 5.52,5.64,6.67
"C#Cc1c(F)ccc2cc(O)cc(-c3nc4c5c(nc(OC[C@@]67CCCN6C[C@H](F)C7)nc5c3F)N3CC(F)(F)CC[C@H]3CO4)c12 [Example 98, 5-ethynyl-6-fluoro-4-[(8aS)-4,11,11-trifluoro-2-{[(2R,7aS)-2-fluorotetrahydro-1H-pyrrolizin-7a(5H)-yl]methoxy}-8,8a,9,10,11,12-hexahydro-7-oxa-1,3,6,12a-tetraazabenzo[4,5]cyclohepta[1,2,3-de]naphthalen-5-yl]naphthalen-2-ol]",,,6.94
"C#Cc1c(F)ccc2cc(O)cc(-c3nc4c5c(nc(OC[C@@]67CCCN6C[C@H](F)C7)nc5c3F)N3CCC[C@](C)(O)[C@@H]3CO4)c12 [Example 113, (8aS,9S)-5-(8-ethynyl-7-fluoro-3-hydroxynaphthalen-1-yl)-4-fluoro-2-{[(2R,7aS)-2-fluorotetrahydro-1H-pyrrolizin-7a(5H)-yl]methoxy}-9-methyl-8,8a,9,10,11,12-hexahydro-7-oxa-1,3,6,12a-tetraazabenzo[4,5]cyclohepta[1,2,3-de]naphthalen-9-ol]",< 5.52,,< 5.52

# Continued, in another order:
pIC50 [1],pIC50 [3],SMILES,pIC50 [2]
6.12,< 5.52,"C#Cc1c(F)ccc2cc(O)cc(-c3nc4c5c(nc(OC[C@@]67CCCN6C[C@H](F)C7)nc5c3F)N3C[C@H](O)CC[C@H]3CO4)c12 [Example 29, (8aS,11R)-5-(8-ethynyl-7-fluoro-3-hydroxynaphthalen-1-yl)-4-fluoro-2-{[(2R,7aS)-2-fluorotetrahydro-1H-pyrrolizin-7a(5H)-yl]methoxy}-8,8a,9,10,11,12-hexahydro-7-oxa-1,3,6,12a-tetraazabenzo[4,5]cyclohepta[1,2,3-de]naphthalen-11-ol]",6.44
7.01,6.86,"C#Cc1c(F)ccc2cc(O)cc(-c3nc4c5c(nc(OC[C@@]67CCCN6C[C@H](F)C7)nc5c3F)N3C[C@](C)(O)CC[C@H]3CO4)c12 [Example 30, (8aS,11R)-5-(8-ethynyl-7-fluoro-3-hydroxynaphthalen-1-yl)-4-fluoro-2-{[(2R,7aS)-2-fluorotetrahydro-1H-pyrrolizin-7a(5H)-yl]methoxy}-11-methyl-8,8a,9,10,11,12-hexahydro-7-oxa-1,3,6,12a-tetraazabenzo[4,5]cyclohepta[1,2,3-de]naphthalen-11-ol]",7.30
6.21,6.16,"C#Cc1c(F)ccc2cc(O)cc(-c3nc4c5c(nc(OC[C@@]67CCCN6C[C@H](F)C7)nc5c3F)N(C)[C@@H](C3CC3)CO4)c12 [Example 32, 4-[(9S)-9-cyclopropyl-4-fluoro-2-{[(2R,7aS)-2-fluorotetrahydro-1H-pyrrolizin-7a(5H)-yl]methoxy}-10-methyl-9,10-dihydro-8H-7-oxa-1,3,6,10-tetraazacyclohepta[1,2,3-de]naphthalen-5-yl]-5-ethynyl-6-fluoronaphthalen-2-ol]",6.53
7.37,7.38,"CCc1c(F)ccc2cc(O)cc(-c3nc4c5c(nc(OC[C@@]67CCCN6C/C(=C\F)C7)nc5c3F)N3CCCC[C@H]3CO4)c12 [Example 41, 5-ethyl-6-fluoro-4-[(8aS)-4-fluoro-2-{[(2Z,7aS)-2-(fluoromethylidene)tetrahydro-1H-pyrrolizin-7a(5H)-yl]methoxy}-8,8a,9,10,11,12-hexahydro-7-oxa-1,3,6,12a-tetraazabenzo[4,5]cyclohepta[1,2,3-de]naphthalen-5-yl]naphthalen-2-ol]",7.68
6.10,< 5.52,"C#Cc1c(F)ccc2cc(O)cc(-c3nc4c5c(nc(OC[C@@]67CCCN6C[C@H](F)C7)nc5c3F)N[C@@H](C(C)C)CO4)c12 [Example 47, 5-ethynyl-6-fluoro-4-[(9S)-4-fluoro-2-{[(2R,7aS)-2-fluorotetrahydro-1H-pyrrolizin-7a(5H)-yl]methoxy}-9-(propan-2-yl)-9,10-dihydro-8H-7-oxa-1,3,6,10-tetraazacyclohepta[1,2,3-de]naphthalen-5-yl]naphthalen-2-ol]",≤ 5.22
6.95,,"C#Cc1c(F)ccc2cc(O)cc(-c3nc4c5c(nc(OC[C@@]67CCCN6C[C@H](F)C7)nc5c3F)N3CCC[C@@](C)(O)[C@H]3CO4)c12 [Example 53, (8aR,9R)-5-(8-ethynyl-7-fluoro-3-hydroxynaphthalen-1-yl)-4-fluoro-2-{[(2R,7aS)-2-fluorotetrahydro-1H-pyrrolizin-7a(5H)-yl]methoxy}-9-methyl-8,8a,9,10,11,12-hexahydro-7-oxa-1,3,6,12a-tetraazabenzo[4,5]cyclohepta[1,2,3-de]naphthalen-9-ol]",7.46
8.29,8.45,"C#Cc1c(F)ccc2cc(O)cc(-c3nc4c5c(nc(OC[C@@]67CCCN6C[C@H](F)C7)nc5c3F)N(C(C)C)[C@@H](C)CO4)c12 [Example 56, 5-ethynyl-6-fluoro-4-[(9S)-4-fluoro-2-{1[(2R,7aS)-2-fluorotetrahydro-1H-pyrrolizin-7a(5H)-yl]methoxy}-9-methyl-10-(propan-2-yl)-9,10-dihydro-8H-7-oxa-1,3,6,10-tetraazacyclohepta[1,2,3-de]naphthalen-5-yl]naphthalen-2-ol]",8.61
7.23,7.37,"C#Cc1c(F)ccc2cc(O)cc(-c3nc4c5c(nc(OC[C@@]67CCCN6C[C@H](F)C7)nc5c3F)N3CCOC[C@H]3CO4)c12 [Example 58, 5-ethynyl-6-fluoro-4-[(8aS)-4-fluoro-2-{[(2R,7aS)-2-fluorotetrahydro-1H-pyrrolizin-7a(5H)-yl]methoxy}-8a,9,11,12-tetrahydro-8H-7,10-dioxa-1,3,6,12a-tetraazabenzo[4,5]cyclohepta[1,2,3-de]naphthalen-5-yl]naphthalen-2-ol]",7.44

# Reference: patent US20260008787A1, “FUSED RING KRAS INHIBITORS FOR TREATING DISEASE” (BLOSSOMHILL THERAPEUTICS, INC., priority 2022, published 2026)
